What was measured:
[1] = biological target: T1, brain histamine H3 receptor (Rattus norvegicus, UniProt Q9QYN8); test: Rat ex vivo binding studies - rat brain histamine H3 receptor occupancy ([3H]-R-α-methylhistamine); format: in vivo; details: for inhibition of [3H]-R-α-methylhistamine specific binding to the H3 receptor (surrogate for rat brain H3 receptor occupancy): 10 mg/kg oral; for specific binding of [3H]-R-α-methylhistamine to the H3 receptor: rats n=3, 10 mg/kg oral, mean ± SEM
T1 construct: from tissue; host or cells: cerebral cortex homogenate of adult male Lister hooded rats
Experimental: Ex vivo binding studies were carried out to determine brain histamine H3 receptor occupancy in rats at certain time points after oral administration of a test compound.
Adult male rats (Lister hooded 200-250 g, Charles River, UK) received vehicle (1% w/v aqueous methylcellulose) (control) or the test compound (10 mg/kg) by oral gavage (n=3 per group) and were sacrificed 1 or 4 hours following oral dosing. The 1 hour and 4 hour studies were not necessarily done on the same day. Terminal blood samples were collected and brains rapidly removed. Cerebral cortex tissue was dissected from half of each brain for ex vivo binding; the other half brain can be used for pharmacokinetic analysis of brain concentrations of each compound. All dissected tissue samples were snap-frozen in liquid nitrogen, and stored at −80° C. until use. The tissues were rapidly thawed and homogenised in approximately 30 volumes of ice cold assay reaction buffer. The assay reaction buffer contained 50 mM Tris-HCl (made up using Trizma pre-set crystals pH 7.7 @25° C., Sigma cat. No. T8068-250G) and 5 mM EDTA, with a final buffer pH of 7.2 to 7.8, usually about 7.4. The crude homogenate (600-800 μg/well) was then used to measure H3 receptor binding using [^3H]-R-α-methylhistamine as radioligand. Assays measuring total binding of [^3H]-R-α-methylhistamine consisted of 50 μl assay reaction buffer, 400 μl of homogenate (corresponding to 600-800 μg/well) and 50 μl of 2 nM R(−)α-Methyl[imidazole-2,5(n)-3H]histamine dihydrochloride ([^3H]-R-α-methylhistamine; specific activity, 24 Ci mmol^−1, Amersham Biosciences, catalogue no. TRK1017). Incubations with [^3H]-R-α-methylhistamine were for 45 min at 30° C. Non-specific binding of [^3H]-R-α-methylhistamine was determined in parallel using the same assay except that 50 μl of 10 μM imetit (an H3 receptor agonist, e.g. available from Tocris) was used instead of the 50 μl of assay reaction buffer. The experiments were terminated by rapid filtration through Whatman GF/B filters (pre-soaked in 0.3% v/v polyethyleneimine (PEI)), and then the filters were washed through with 4×5 ml of ice cold harvesting buffer. The harvesting buffer contained 50 mM Tris-HCl (from Trizma pre-set crystals pH 7.7 @ 25° C.) and 5 mM MgCl2, with a final buffer pH of 7.2 to 7.8, usually about 7.4. Filters were dried and added to vials each containing 4 ml Ultima Gold MV scintillation fluid (Hewlett Packard) and radioactivity determined by liquid scintillation spectrometry using a Packard Tri-Carb 2500TR liquid scintillation counter.
Specific binding of [^3H]-R-α-methylhistamine to the H3 receptor was determined by the subtraction of the value obtained for non-specific binding from the value obtained for total binding.
Protein concentrations were determined using the Bradford assay method (Bio-Rad
Protein Assay Dye Reagent Concentrate, catalogue no. 500-0006; from Bio-Rad Laboratories GmbH, Heidemannstrasse 164, 80939 Muenchen, Germany; or from Bio-Rad, York, UK) with bovine serum albumin as a standard. Specific radioactivity in the samples was corrected for protein (i.e. per microgram of protein).
The specific binding of [^3H]-R-α-methylhistamine to the H3 receptor is expressed as a mean (n=3 rats)±SEM (standard error of the mean), as a percentage of vehicle-treated control animals. Data is also expressed as inhibition of [^3H]-R-α-methylhistamine specific binding to the H3 receptor, as a surrogate measure for H3 receptor occupancy by the test compound, calculated as 100% minus the % mean specific binding of [^3H]-R-α-methylhistamine to the H3 receptor.

[2] = test system: Sprague Dawley rats; test: Toxicity Study 2: 7-day oral dose range-finding study in Sprague Dawley rats; format: in vivo, rat
Experimental: Three male rats and three female rats were added at 600 mg/kg/day and 3 female rats were added at 300 mg/kg/day for toxicokinetic evaluation.
The following endpoints/parameters were evaluated for toxicology animals: clinical observations, body weights, food consumption, selected haematology, selected clinical chemistry, liver weights, and selected macroscopic and microscopic observations. Toxicokinetic evaluation was performed on samples collected on Day 1 (300 and 600 mg/kg/day dosing) and Day 7 (300 mg/kg/day dosing only).

[3] = Plasma clearance in the pig-PET study; format: in vivo; details: Yorkshire-Landrace, iv, 50 ug/kg, 50 micrograms/kg i.v.
[4] = biological target: H3 receptor (Sus scrofa, UniProt A0A287B9V8); test: Pig-PET study with [11C]GSK189254: pig brain H3 receptor occupancy over time and kon-koff limited model; details: 50 micrograms/kg i.v.; for Measured H3 receptor occupancy @ 10 min: 10 minutes post administration; for Measured H3 receptor occupancy @ 2.5 h: 2.5 hours post administration; for Measured H3 receptor occupancy @ 6 h: 6 hours post administration; for Kd: Kd (koff/kon)
[5] = test system: male Sprague Dawley rats; test: Toxicity Study 1: 7-day oral repeat-dose study in male Sprague Dawley rats; format: in vivo, rat; details: for tolerability: male rats
Experimental: Three male rats were added at each non-zero dose level for toxicokinetic evaluation. All doses and concentrations, including analyte concentration in plasma, are expressed in terms of the parent “free base” compound.
The following endpoints/parameters were evaluated for toxicology animals: clinical observations, body weights, food consumption measurements, selected haematology and selected clinical chemistry results, liver weights, selected macroscopic and microscopic observations, and selected hepatic gene expression analysis. Toxicokinetic evaluation (serial profiling) was performed on samples collected from satellite animals on Days 1 and 7. For male rats dosed at 30 or 100 mg/kg/day, histopathology observations carried out were on kidneys, mesentery and mandibular lymph node only. For male rats dosed at 0 mg/kg/day (control) and 300 mg/kg/day, histopathology observations carried out were on adrenals, brain, heart, kidneys, liver, lung, mandibular lymph node, mesentery, stomach, testes, and thymus (except that mandibular lymph node observations were for 0 mg/kg/day dosed rats only).

[6] = rat, in vivo, po, 300 mg/kg/day
[7] = mean ± standard deviation, n=3 pigs

T1 sequence (Q9QYN8 whole entry): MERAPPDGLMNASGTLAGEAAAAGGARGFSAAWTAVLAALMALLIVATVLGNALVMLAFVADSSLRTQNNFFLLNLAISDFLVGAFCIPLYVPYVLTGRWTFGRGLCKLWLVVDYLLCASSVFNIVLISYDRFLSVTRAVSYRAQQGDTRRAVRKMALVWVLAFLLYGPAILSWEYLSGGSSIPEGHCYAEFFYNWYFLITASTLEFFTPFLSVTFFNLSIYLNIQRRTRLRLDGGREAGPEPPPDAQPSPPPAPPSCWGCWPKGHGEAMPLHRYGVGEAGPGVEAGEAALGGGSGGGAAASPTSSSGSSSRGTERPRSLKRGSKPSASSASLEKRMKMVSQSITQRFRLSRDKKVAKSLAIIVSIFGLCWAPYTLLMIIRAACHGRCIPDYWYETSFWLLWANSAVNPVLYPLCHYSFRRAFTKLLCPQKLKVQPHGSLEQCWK
Sequence of H3 receptor (A0A287B9V8 1-448): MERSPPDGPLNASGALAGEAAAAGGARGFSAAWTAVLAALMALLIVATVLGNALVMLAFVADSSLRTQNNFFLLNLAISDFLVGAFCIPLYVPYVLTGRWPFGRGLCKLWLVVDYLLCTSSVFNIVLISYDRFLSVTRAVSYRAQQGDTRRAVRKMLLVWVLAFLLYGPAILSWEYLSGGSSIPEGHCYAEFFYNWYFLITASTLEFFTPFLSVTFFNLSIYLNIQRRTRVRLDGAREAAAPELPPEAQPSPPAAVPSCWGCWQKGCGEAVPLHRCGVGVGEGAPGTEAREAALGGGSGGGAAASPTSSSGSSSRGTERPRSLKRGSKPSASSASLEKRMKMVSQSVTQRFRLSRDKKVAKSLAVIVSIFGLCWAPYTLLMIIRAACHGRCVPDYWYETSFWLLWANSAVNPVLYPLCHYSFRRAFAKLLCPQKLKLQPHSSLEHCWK

CC(C)N1CCN(C(=O)c2ccc(OC3CCOCC3)cc2)CC1.Cl [Example E1]
inhibition of [3H]-R-α-methylhistamine specific binding to the H3 receptor (surrogate for rat brain H3 receptor occupancy) ([1]; 1 hour after dosing): about 60%
inhibition of [3H]-R-α-methylhistamine specific binding to the H3 receptor (surrogate for rat brain H3 receptor occupancy) ([1]; 4 hours after dosing): about 16%
specific binding of [3H]-R-α-methylhistamine to the H3 receptor ([1]; sacrificed 1 hour after dosing): 40%+2%
specific binding of [3H]-R-α-methylhistamine to the H3 receptor ([1]; sacrificed 4 hours after dosing): 84%+6%
tolerability ([2]; conclusion from Toxicity Studies 1 and 2: male and female rats, 7 days oral, doses up to 300 mg/kg/day): well tolerated or moderately well tolerated
tolerability ([2]; female rats, 300 mg/kg/day oral for 7 days (measured as free base)): moderately well tolerated
tolerability ([2]; male or female rats, 600 mg/kg/day oral (only 2 days)): not tolerated
certain haematology and other clinical chemistry parameters [2, 6]: increased
clinical signs [2, 6]: chewing movements, rubbing chin on the cage floor, and certain other clinical signs
glandular dilation of the fundic region of the stomach [2, 6]: of minimal severity, was observed in most female rats
clearance ([3]; average model (from average plasma data)): 38.3 mL/min
clearance ([3]; mean of pigs 1-3): 41.7 mL/min
clearance ([3]; pig 1): 48.3 mL/min
clearance ([3]; pig 2): 50 mL/min
clearance ([3]; pig 3): 30 mL/min
reduction in pig brain H3 receptor occupancy as compared to salt B ([4]; n=3 pigs, preliminary measurements): generally faster reduction
Measured H3 receptor occupancy @ 10 min [4, 7]: 58% ± 4%
Measured H3 receptor occupancy @ 10 min ([4]; pig 1): 61%
Measured H3 receptor occupancy @ 10 min ([4]; pig 2): 54%
Measured H3 receptor occupancy @ 10 min ([4]; pig 3): 58%
Measured H3 receptor occupancy @ 2.5 h [4, 7]: 30% ± 11%
Measured H3 receptor occupancy @ 2.5 h ([4]; pig 1): 43%
Measured H3 receptor occupancy @ 2.5 h ([4]; pig 2): 24%
Measured H3 receptor occupancy @ 2.5 h ([4]; pig 3): 22%
Measured H3 receptor occupancy @ 6 h [4, 7]: 14% ± 14%
Measured H3 receptor occupancy @ 6 h ([4]; pig 1): 30%
Measured H3 receptor occupancy @ 6 h ([4]; pig 2): 7%
Measured H3 receptor occupancy @ 6 h ([4]; pig 3): 5%
Kd ([4]; average model (from average plasma data and average occupancy)): 9.14 nM
Kd ([4]; mean of pigs 1-3): 9.08 nM
Kd ([4]; pig 1, in vivo PK/RO model): 4.47 nM
Kd ([4]; pig 2, in vivo PK/RO model): 9.35 nM
Kd ([4]; pig 3, in vivo PK/RO model): 13.4 nM
tolerability ([5]; 300 mg/kg/day oral for 7 days (measured as free base)): moderately well tolerated
tolerability ([5]; 30 or 100 mg/kg/day oral for 7 days (measured as free base)): well tolerated
food consumption [5, 6]: ca. 0.80 × pretreatment
periarterial inflammatory cell infiltrate in the hilar region of the kidneys [5, 6]: minimal in severity, was noted in the hilar region of the kidneys of all four male rats

— patent publication US20090170869A1, “PIPERAZINE DERIVATIVE HAVING AFFINITY FOR THE HISTAMINE H3 RECEPTOR” (priority 2007, published 2009)
